Assays:
[1] = system: ALS inhibitor resistant Palmer amaranth plants (A3, ALS inhibitor herbicide biotype); test: ALS_pro_S1 trigger followed by Staple or Classic herbicide on ALS inhibitor resistant plants; type: in vivo, Amaranthus palmeri; conditions: dsDNA trigger, FIG. 2
Procedure: Thus, ssDNA ALS2 oligonucleotide treatment followed by Staple® at 1 h and 24 h caused 50 percent and 60 percent growth reduction, relative to the untreated control, while Staple® alone at 27 (1 h and 24 h) and 108 (24 h) g ai/ha caused 35 percent, 30 percent, and 40 percent growth reduction, respectively. […] ALS_pro 51 dsDNA trigger molecule was applied to ALS inhibitor resistant Palmer amaranth plants (A3, ALS inhibitor herbicide biotype) followed by ALS inhibitor herbicides 1× Staple® at 108 g ai/ha or 2× Classic® (Chlorimuron Ethyl 25DF, Dupont, Willmington, Del., 2× rate is 70 g ai/ha) at +COC (crop oil concentrate) 24 hr after trigger application.

[2] = system: Amaranthus palmeri plants (Palmer amaranth A3); test: Tiling test of pooled trigger molecules to ALS large subunit gene, followed by Staple; visual injury; type: in vivo
Procedure: Approximately four-week old (3-4 inches tall) greenhouse grown Amaranthus palmeri plants (Palmer amaranth A3) were used in these assays. The plants were spray treated in a greenhouse with the ALStile composition, each composition having six trigger oligonucleotides (Table 3) and a formulation comprising 1 percent Silwet L-77 solution, 2 percent ammonium sulfate and 20 mM sodium phosphate and the concentration of each oligonucleotide was approximately 4 nmol. Spray solutions were prepared the same day as spraying and applied using a track sprayer with a FLATfan nozzle 9501E at 165 psi (pounds/square inch) at a rate of 93 g/ha (grams/hectare). The dsDNA ALStile pool oligonucleotide composition was applied and followed 24 hours later by the herbicide treatment, Staple® (2-Chloro-6-{(4,6-dimethoxy-2-pyrimidinyl)thio}benzoic acid sodium salt, pyrithiobac sodium 85 percent, Dupont, Wilmington, Del.) at 108 g/ha (grams per hectare), five replications per treatment and the data is presented as a visual score of percentage injury determined fourteen days after herbicide application.

[3] = system: Amaranthus palmeri plants (glyphosate-resistant Palmer amaranth, "R-22"); test: Topical ssDNA ALS2 promoter oligonucleotide pool followed by Staple herbicide; plant height; type: in vivo; conditions: testing repeated with individual oligonucleotides
Procedure: In this example, growing Amaranthus palmeri plants were treated with a topically applied composition for inducing modulation of a target gene in a plant including (a) an agent for conditioning of a plant to transfer of the polynucleotides and (b) polynucleotides including at least one ssDNA polynucleotide strand including at least one segment of 18-21 contiguous nucleotides of the target gene in sense (S) orientation. […]
Approximately four-week old greenhouse grown Amaranthus palmeri plants (glyphosate-resistant Palmer amaranth, “R-22”) were used in this assays. […] The ssDNA ALS2 oligonucleotide composition was applied and followed 24 hours later by the herbicide treatment, Staple® (2-Chloro-6-{(4,6-dimethoxy-2-pyrimidinyl)thio}benzoic acid sodium salt, pyrithiobac sodium 85 percent, Dupont, Wilmington, Del.) at ¼×(27 g ai/ha (grams active ingredient per hectare) rate for the ssDNA ALS2 oligonucleotide treated plants and 1× rate (108 g ai/ha) for the untreated plants, five replications per treatment and the data is presented as percentage height of the untreated control. Plant height is determined at seven days after herbicide treatment.

[4] = trigger pool (about 4 nmol each) or formulation, Staple @ 108 g/ha 24 h later, 14 days after herbicide, A3

ALSpro_S1: trigger TCTTCTCCGACTCTCACAA, SEQ ID NO:4202; ssDNA in Table 2, dsDNA in b81, dsRNA in Table 3 (chemistry not fully specified; listed as Amaranthus palmeri)
improvement of herbicide activity on ALS inhibitor resistant plants ([1]; then 1x Staple at 108 g ai/ha 24 hr after trigger): substantially improved the activity | improvement of herbicide activity on ALS inhibitor resistant plants ([1]; then 2x Classic (70 g ai/ha) + COC 24 hr after trigger): substantially improved the activity | herbicide enhancing activity relative to the formulation control ([2]; A3 biotype, Staple @ 108 g/ha): herbicide enhancing activity | visual score of percentage injury, avg ([2]; average of five replications, trigger pool or formulation, Staple @ 108 g/ha 24 h later, 14 days after herbicide, A3): 100% | visual score of percentage injury, Rep1 [2, 4]: 100% | visual score of percentage injury, Rep2 [2, 4]: 100% | visual score of percentage injury, Rep3 [2, 4]: 100% | visual score of percentage injury, Rep4 [2, 4]: 100% | visual score of percentage injury, Rep5 [2, 4]: 100% | ALS inhibitor herbicide enhancing activity of the individual trigger molecule [3]: effective trigger molecule
